Experimental data taken from US20240132485A1, “HETEROCYCLIC CULLIN RING UBIQUITIN LIGASE COMPOUNDS AND USES THEREOF” (CEMM - FORSCHUNGSZENTRUM FÜR MOLEKULARE MEDIZIN GMBH, priority 2020, published 2024).
pEC50: −log10 of the molar value.

What was measured:
[1] = test system: KBM7 cells harboring a hypomorphic UBE2M mutation; assay: KBM7 CTG EC50 assay (UBE2M knock-out); assay type: cell-based; details: Homo sapiens, KBM-7; 72 h incubation, CellTiter-Glo; read-out: KBM7 CTG EC50 (UBE2M knock-out) Activity Class
Excerpt: (§1) This is a cell viability assay to measure the desired therapeutic effect, i.e. killing of cancer cells. The UBE2M mutant cell line has impaired activity of the Cullin-RING ligase system due to a hypomorphic mutation in UBE2M, which is required for activation of these E3 ligases. By comparison with WT cells, it is possible to estimate the contribution of Cyclin K degradation (which is reduced in UBE2M mut cells) compared to kinase inhibition of CDK12 (which is unaffected in UBE2M mut cells). Since the UBE2M mutation only reduces CRL function without fully abrogating it, this assay may slightly underestimate the effect of degradation because, at high compound concentrations, degradation may still be observed.
(§2) KBM7 cells (wild-type or harboring α hypomorphic UBE2M mutation (Mayor-Ruiz et al., 2019)) were seeded in a white opaque 384-well plate at a density of 1000 cells per well in duplicate, in full medium (IMDM+10% FBS+1% penicillin-streptomycin). Cells were treated with compounds in a 10-point titration with a dilution factor of 1:4 (range: 0 to 20 μM). After 72 h of incubation, the cell viability was determined using the CellTiter-Glo® 2.0 reactant (Promega), pre-diluted 1:4 in mQ water. The luminescence signal was measured using the multimode plate reader EnVision 2105 (Perkin Elmer).

[2] = test system: CCNK; assay: NanoLuc-CCNK degradation assay (HEK293T_Nluc_CCNK-tagged cells); assay type: cell-based; details: 4 h incubation, HEK293T_Nluc_CCNK-tagged cells; for DC50: read-out: NanoLuc-CCNK degradation DC50 Activity Class
Procedure: The assay helps to elucidate the mechanistic explanation of the cell killing effect of the compounds of the present invention. Cyclin K is fused to a nanoluciferase, light emission is measured as a proxy of Cyclin K abundance. Potency of Cyclin K degradation and cytotoxicity of KBM7 correlate extremely well, further supporting Cyclin K degradation being the main driver of the cell killing, as opposed to inhibition of CDK12 catalytic activity.
HEK293T_Nluc_CCNK-tagged cells were engineered by integrating a nanoluciferase tag at the N-terminus of the endogenous locus of CCNK using CRISPR-Cas9 technology. Briefly, 5.5 million HEK293T cells were co-transfected by PEI with a 1:1 ratio of cutting vector (sgRNA: […]) and repair template (4 μg total plasmid) as previously described (Brand and Winter, 2019). The repair sequence comprises a cassette of puromycinR-P2A-HA-Nluc-(G4S)3 (P2A: self-cleaving peptide 2A, HA: HA-tag, (G4S)3: flexible linker), surrounded by 20-nucleotide microhomologies matching the genomic locus. After 3 days of incubation, the recombinant population was selected by puromycin treatment (2 μg/ml, 5-day treatment). A monoclonal population was obtained by limiting dilution and cassette integration validated by Sanger sequencing.
HEK293T_Nluc_CCNK-tagged cells were seeded in a white opaque 384-well plate at a density of 8000 cells per well in duplicate, in full medium (Opti-MEM I+4% FBS+1% PS). Cells were treated with compounds in a 10-point titration (range: 0 to 10 μM, 1:4 dilution). After 4 h of incubation, Nano-Glo substrate (Promega), pre-diluted in serum-free medium (Opti-MEM I), was added to the cells (1:500 final dilution). The luminescence signal was directly measured using the multimode plate reader EnVision 2105 (Perkin Elmer).

[3] = test system: KBM7 cells (wild-type); assay: KBM7 CTG EC50 assay (UBE2M wild-type); assay type: cell-based, human; details: for pEC50: Homo sapiens, KBM-7, 72 h incubation, CellTiter-Glo, read-out: KBM7 CTG EC50 (UBE2M wild-type) Activity Class; for Ratio UBE2M WT to KO: ratio of anti-proliferative activity in KBM7 wild-type versus UBE2M knock-out cells (fold)
Excerpt: as §1, §2

[4] = molecular target: T1, DDB1-CDK12/Cyclin K ternary complex (Homo sapiens, UniProt Q16531+Q9NYV4); assay: NanoBRET fold-change assay (HaloTag_CDK12 / NanoLuc_DDB1 in HEK293T); assay type: cell-based; details: 10 μM compound, 10 minutes
T1 construct: expressed in transfected cells; host or cells: HEK293T wildtype cells, transient PEI transfection
Procedure: This assay measures the interaction/recruitment of CDK12/Cyclin K to DDB1, mechanistically validating the molecular glue pharmacology.
HEK293T wildtype cells are seeded 800 k cells/well (DMEM+10% FBS+1% PS) in a 6-well plate and allowed to attach for ˜7 hours followed by a transient transfection of 1.5 μg HaloTag_CDK12 Plasmid [Table 1] and 0.15 μg NanoLuc_DDB1 plasmid [Table 1] per well using PEI. Cells are incubated at 37° C., 5% CO2, harvested after 24 hours and resuspended in assay media (Opti-MEM Reduced serum media, no phenol red, 4% FBS, 1% PS). Cells are adjusted to 2.3×10^5 cells/ml and treated with HaloTag 618 Ligand at 100 nM or DMSO. 8000 cells are seeded per well in triplicates per compound in a white-walled 384-well plate, one negative control treated with DMSO instead of HaloTag 618 Ligand is seeded in triplicates and the 384-well plate is incubated at 37° C., 5% CO2 overnight. Compound stock solutions are prepared in Opti-MEM−/− (Opti-MEM I Reduced serum media, no phenol red) at 8× and used to treat the cells at a final concentration of 1× at 10 μM. Cells and compounds are incubated for 10 minutes at room temperature followed by addition of NanoBRET Nano-Glo substrate following manufacturer's protocols. The plate is shaken for 30 sec followed by immediate measurement of donor emission (NanoBRET Blue at 460 nm) and acceptor emission (BRET Deep Red at 647 nm) for 0.5 s.

T1 sequence (Q9NYV4 whole entry): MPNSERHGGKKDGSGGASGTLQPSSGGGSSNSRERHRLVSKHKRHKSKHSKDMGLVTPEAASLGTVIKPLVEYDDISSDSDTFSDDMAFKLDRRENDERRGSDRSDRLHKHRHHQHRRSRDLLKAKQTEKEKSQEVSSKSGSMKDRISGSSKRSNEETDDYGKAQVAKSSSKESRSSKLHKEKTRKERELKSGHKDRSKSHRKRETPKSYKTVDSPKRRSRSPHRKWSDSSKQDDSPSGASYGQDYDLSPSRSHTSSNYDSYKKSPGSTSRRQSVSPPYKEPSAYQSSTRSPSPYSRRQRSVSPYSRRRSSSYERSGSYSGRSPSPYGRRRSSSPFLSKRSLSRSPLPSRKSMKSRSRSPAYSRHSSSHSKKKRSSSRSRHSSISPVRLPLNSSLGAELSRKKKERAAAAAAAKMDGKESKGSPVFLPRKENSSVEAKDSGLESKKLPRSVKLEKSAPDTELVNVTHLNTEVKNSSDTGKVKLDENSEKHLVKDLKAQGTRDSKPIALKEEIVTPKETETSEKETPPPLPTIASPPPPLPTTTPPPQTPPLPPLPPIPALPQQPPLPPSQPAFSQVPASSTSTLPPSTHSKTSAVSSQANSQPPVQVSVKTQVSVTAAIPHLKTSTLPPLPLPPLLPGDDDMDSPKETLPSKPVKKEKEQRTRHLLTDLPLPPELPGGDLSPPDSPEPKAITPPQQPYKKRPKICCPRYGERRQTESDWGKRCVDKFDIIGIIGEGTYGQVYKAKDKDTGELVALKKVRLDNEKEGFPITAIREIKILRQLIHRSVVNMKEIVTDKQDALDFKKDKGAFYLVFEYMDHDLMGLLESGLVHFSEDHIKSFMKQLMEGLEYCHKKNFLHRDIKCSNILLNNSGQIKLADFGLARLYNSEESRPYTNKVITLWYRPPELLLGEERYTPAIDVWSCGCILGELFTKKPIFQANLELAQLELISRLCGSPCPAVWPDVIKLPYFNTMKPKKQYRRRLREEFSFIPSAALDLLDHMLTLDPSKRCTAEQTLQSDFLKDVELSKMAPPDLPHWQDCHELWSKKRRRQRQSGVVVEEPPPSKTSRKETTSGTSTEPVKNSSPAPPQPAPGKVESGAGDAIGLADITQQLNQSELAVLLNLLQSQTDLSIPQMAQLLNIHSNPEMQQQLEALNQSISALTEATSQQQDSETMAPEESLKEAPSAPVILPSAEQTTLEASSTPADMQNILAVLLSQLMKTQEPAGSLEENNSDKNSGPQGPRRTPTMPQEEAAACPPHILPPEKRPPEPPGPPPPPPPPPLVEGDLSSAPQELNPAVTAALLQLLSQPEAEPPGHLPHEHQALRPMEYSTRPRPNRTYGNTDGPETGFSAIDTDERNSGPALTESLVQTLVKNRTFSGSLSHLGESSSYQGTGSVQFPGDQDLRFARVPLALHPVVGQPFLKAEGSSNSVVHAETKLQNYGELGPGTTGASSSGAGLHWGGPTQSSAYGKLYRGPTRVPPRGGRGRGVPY
T1 sequence (Q16531 whole entry): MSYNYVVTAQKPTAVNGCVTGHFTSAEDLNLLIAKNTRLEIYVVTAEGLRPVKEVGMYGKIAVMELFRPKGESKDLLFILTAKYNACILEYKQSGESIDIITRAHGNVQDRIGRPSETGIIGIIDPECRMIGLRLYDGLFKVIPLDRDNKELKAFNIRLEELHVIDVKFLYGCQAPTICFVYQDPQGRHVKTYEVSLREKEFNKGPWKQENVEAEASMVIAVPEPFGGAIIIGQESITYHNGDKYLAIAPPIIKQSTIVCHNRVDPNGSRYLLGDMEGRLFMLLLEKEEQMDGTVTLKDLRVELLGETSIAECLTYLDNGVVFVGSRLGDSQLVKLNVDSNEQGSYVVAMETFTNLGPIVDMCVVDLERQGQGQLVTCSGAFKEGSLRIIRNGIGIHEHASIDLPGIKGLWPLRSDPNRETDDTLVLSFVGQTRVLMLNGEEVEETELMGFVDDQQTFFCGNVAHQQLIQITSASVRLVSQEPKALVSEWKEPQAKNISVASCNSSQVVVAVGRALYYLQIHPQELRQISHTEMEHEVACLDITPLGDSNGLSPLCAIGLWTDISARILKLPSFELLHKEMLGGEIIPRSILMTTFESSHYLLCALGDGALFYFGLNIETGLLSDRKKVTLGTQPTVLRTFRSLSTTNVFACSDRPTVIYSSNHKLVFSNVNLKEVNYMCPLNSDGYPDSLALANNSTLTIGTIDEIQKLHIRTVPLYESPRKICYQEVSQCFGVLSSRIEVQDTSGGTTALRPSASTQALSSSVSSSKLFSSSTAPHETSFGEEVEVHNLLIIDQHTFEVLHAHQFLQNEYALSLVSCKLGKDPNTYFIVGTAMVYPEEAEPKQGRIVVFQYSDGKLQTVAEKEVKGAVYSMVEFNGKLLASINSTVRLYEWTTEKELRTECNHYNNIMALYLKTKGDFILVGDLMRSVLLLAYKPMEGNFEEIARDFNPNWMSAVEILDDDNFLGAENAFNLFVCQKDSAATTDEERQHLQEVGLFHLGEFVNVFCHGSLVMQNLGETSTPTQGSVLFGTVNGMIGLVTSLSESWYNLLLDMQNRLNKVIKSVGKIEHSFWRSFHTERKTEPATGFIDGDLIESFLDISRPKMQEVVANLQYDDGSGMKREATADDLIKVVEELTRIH
T1 sequence (O75909 whole entry partner): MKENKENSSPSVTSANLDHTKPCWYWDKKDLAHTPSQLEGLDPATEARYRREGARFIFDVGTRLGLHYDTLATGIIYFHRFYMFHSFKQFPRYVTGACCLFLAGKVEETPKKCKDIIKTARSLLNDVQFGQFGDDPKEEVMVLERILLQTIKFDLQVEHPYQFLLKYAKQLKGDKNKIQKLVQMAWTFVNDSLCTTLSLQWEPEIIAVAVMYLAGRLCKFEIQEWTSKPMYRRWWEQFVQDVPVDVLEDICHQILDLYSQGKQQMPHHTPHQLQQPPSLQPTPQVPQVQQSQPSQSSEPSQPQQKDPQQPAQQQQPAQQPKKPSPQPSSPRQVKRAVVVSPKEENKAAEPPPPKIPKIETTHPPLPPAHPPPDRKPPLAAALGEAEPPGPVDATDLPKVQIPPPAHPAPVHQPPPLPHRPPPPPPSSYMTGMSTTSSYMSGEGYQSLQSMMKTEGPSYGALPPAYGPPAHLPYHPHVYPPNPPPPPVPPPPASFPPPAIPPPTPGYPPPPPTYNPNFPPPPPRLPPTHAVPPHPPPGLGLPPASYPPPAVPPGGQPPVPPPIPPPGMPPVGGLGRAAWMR

| SMILES | pEC50 [1] | DC50 [2] [µM] | pEC50 [3] | Ratio UBE2M WT to KO [3] | NanoBRET fold-change Activity Class [4] | NanoLuc-CCNK degradation DC50 Activity Class [2] |
| --- | --- | --- | --- | --- | --- | --- |
| O=C(Nc1ncc(C(F)(F)F)s1)C1CC(=O)N(c2ccc(F)cc2)C1 (stereo not shown) [Example 3-26, 1-(4-fluorophenyl)-5-oxo-N-(5-(trifluoromethyl)thiazol-2-yl)pyrrolidine-3-carboxamide] | < 5.00 | > 10 | 5.00 to 6.00 | >5 | C (2-3 fold increase) | – |
| O=C(Nc1ncc(C(F)(F)F)s1)C1CC(=O)N(Cc2ccccc2)C1 (stereo not shown) [Example 3-27, 1-benzyl-5-oxo-N-(5-(trifluoromethyl)thiazol-2-yl)pyrrolidine-3-carboxamide] | < 5.00 | ≤ 0.1 | ≥ 6.60 | >10 | B (3-4 fold increase) | – |
| O=C(Nc1ncc(C(F)(F)F)s1)C1CC(=O)N(Cc2ccc(Cl)cc2)C1 (stereo not shown) [Example 3-28, 1-(4-chlorobenzyl)-5-oxo-N-(5-(trifluoromethyl)thiazol-2-yl)pyrrolidine-3-carboxamide] | 5.00 to 6.00 | – | ≥ 6.60 | 42.7 | B (3-4 fold increase) | C (1.0 μM≤DC50<0.50 μM) |
| Cc1ccc(CN2CC(C(=O)Nc3ncc(C(F)(F)F)s3)CC2=O)cc1 (stereo not shown) [Example 3-29, 1-(4-methylbenzyl)-5-oxo-N-(5-(trifluoromethyl)thiazol-2-yl)pyrrolidine-3-carboxamide] | < 5.00 | > 10 | 6.00 to 6.30 | >16 | B (3-4 fold increase) | – |
| O=C(Cc1cccc2cnccc12)Nc1ncc(C(F)(F)F)s1 [Example 3-30, 2-(isoquinolin-5-yl)-N-(5-(trifluoromethyl)thiazol-2-yl)acetamide] | < 5.00 | > 10 | < 5.00 | >1 | C (2-3 fold increase) | – |
| O=C(Cc1ccc2cnccc2c1)Nc1ncc(C(F)(F)F)s1 [Example 3-31, 2-(isoquinolin-6-yl)-N-(5-(trifluoromethyl)thiazol-2-yl)acetamide] | < 5.00 | > 10 | 5.00 to 6.00 | >4 | C (2-3 fold increase) | – |
| O=C(Cc1ccc2ccncc2c1)Nc1ncc(C(F)(F)F)s1 [Example 3-32, 2-(isoquinolin-7-yl)-N-(5-(trifluoromethyl)thiazol-2-yl)acetamide] | 5.00 to 6.00 | ≤ 0.1 | ≥ 6.60 | 115.9 | B (3-4 fold increase) | – |
| O=C(Cc1cccc2ccncc12)Nc1ncc(C(F)(F)F)s1 [Example 3-33, 2-(isoquinolin-8-yl)-N-(5-(trifluoromethyl)thiazol-2-yl)acetamide] | 5.00 to 6.00 | > 10 | ≥ 6.60 | 64.7 | A (greater than 4-fold increase) | – |
| O=C(Cc1cncc2ccccc12)Nc1ncc(C(F)(F)F)s1 [Example 3-34, 2-(isoquinolin-4-yl)-N-(5-(trifluoromethyl)thiazol-2-yl)acetamide] | < 5.00 | > 10 | 5.00 to 6.00 | >3 | C (2-3 fold increase) | – |
| Cc1ccc2c(ccn2CC(=O)Nc2ncc(C(F)(F)F)s2)c1 [Example 3-37, 2-(5-methyl-1H-indol-1-yl)-N-(5-(trifluoromethyl)thiazol-2-yl)acetamide] | < 5.00 | > 10 | 5.00 to 6.00 | >4 | C (2-3 fold increase) | – |
| O=C(Cc1c[nH]c2nccc(Cl)c12)Nc1ncc(C(F)(F)F)s1 [Example 3-39, 2-(4-chloro-1H-pyrrolo[2,3-b]pyridin-3-yl)-N-(5-(trifluoromethyl)thiazol-2-yl)acetamide] | < 5.00 | – | 5.00 to 6.00 | >4 | B (3-4 fold increase) | D (10 μM≤DC50<1.0 μM) |
| O=C(Cc1cc2ccccc2o1)Nc1ncc(C(F)(F)F)s1 [Example 3-41, 2-(benzofuran-2-yl)-N-(5-(trifluoromethyl)thiazol-2-yl)acetamide] | < 5.00 | – | 5.00 to 6.00 | >2 | C (2-3 fold increase) | D (10 μM≤DC50<1.0 μM) |
| Cc1ccc2c(CC(=O)Nc3cc(C4CC4)[nH]n3)coc2c1C [Example 3-46, N-(5-cyclopropyl-1H-pyrazol-3-yl)-2-(6,7-dimethylbenzofuran-3-yl)acetamide] | < 5.00 | – | 6.00 to 6.30 | >10 | B (3-4 fold increase) | D (10 μM≤DC50<1.0 μM) |
| Cc1ccc2c(CC(=O)Nc3cc(Cl)[nH]n3)coc2c1C [Example 3-49, N-(5-chloro-1H-pyrazol-3-yl)-2-(6,7-dimethylbenzofuran-3-yl)acetamide] | 5.00 to 6.00 | – | ≥ 6.60 | 37.3 | B (3-4 fold increase) | B (0.50 μM≤DC50<0.10 μM) |
| Cc1ccc2c(CC(=O)Nc3ccc(C(F)(F)F)cn3)coc2c1C [Example 3-54, 2-(6,7-dimethylbenzofuran-3-yl)-N-(5-(trifluoromethyl)pyridin-2-yl)acetamide] | 5.00 to 6.00 | > 10 | ≥ 6.60 | 24.7 | C (2-3 fold increase) | – |
| Cc1ccc2c(CC(=O)Nc3ccc(Cl)cn3)coc2c1C [Example 3-55, N-(5-chloropyridin-2-yl)-2-(6,7-dimethylbenzofuran-3-yl)acetamide] | 5.00 to 6.00 | – | 6.30 to 6.60 | 9.2 | B (3-4 fold increase) | C (1.0 μM≤DC50<0.50 μM) |
| Cc1cc(NC(=O)Cc2cn3cc(F)ccc3n2)n[nH]1 [Example 3-56, 2-(6-fluoroimidazo[1,2-a]pyridin-2-yl)-N-(5-methyl-1H-pyrazol-3-yl)acetamide] | < 5.00 | > 10 | 6.30 to 6.60 | >10 | C (2-3 fold increase) | – |
